We go through 16 molecules from ChEMBL document CHEMBL1142329, “Synthesis and antispasmodic activity of lidocaine derivatives endowed with reduced local anesthetic action” (Bioorg Med Chem Lett, 2008).

Experiment [1] deals with Rattus norvegicus. Nature of the experiment: Anesthetic activity in rat at 0.5 uMol/site assessed as duration of full recovery of sensory block. The class given is functional.
Experiment [2] concerns Rattus norvegicus. Nature of the experiment: Anesthetic activity in rat at 1.0 uMol/site assessed as duration of full recovery of sensory block. The class given is functional.
Experiment [3] concerns Rattus norvegicus. The experiment in a line: Anesthetic activity in rat at 2.0 uMol/site assessed as duration of full recovery of sensory block. The class given is functional.
For experiment [4], the system named is Rattus norvegicus. The experiment in a line: Anesthetic activity in rat at 4.0 uMol/site assessed as duration of full recovery of sensory block. The class given is functional.
Experiment [5] has as its system Ileum. Nature of the experiment: Antispasmodic activity in guinea pig ileum assessed as inhibition of histamine-induced contraction. The class given is functional, tissue-based. As to conditions: Cavia porcellus.
Experiment [6] relates to Ileum. Nature of the experiment: Antispasmodic activity in guinea pig ileum assessed as inhibition of allergen-induced contraction. The class given is functional, tissue-based. As to conditions: Cavia porcellus.
The nature of experiment [7]: Activity at sodium channel assessed as blockade of sodium current.

Take `CCN(CC)CCC(=O)Nc1c(C)cccc1C`: the Time in experiment [1] is listed as 72 min; in experiment [2], 107 min; in experiment [3], 194 min; in experiment [4], 311 min.
Take `CCN(CC)CCC(=O)Nc1ccc(C)cc1C`: the Time in experiment [1] was found to be 35 min; in experiment [2], 89 min; in experiment [3] it was 166 min; in experiment [4], 239 min.
For `CCN(CC)CC(=O)Nc1ccc(C)cc1C`, the Time in experiment [1] was determined as 17 min; in experiment [2] it was 32 min; in experiment [3], 63 min; in experiment [4] it was 92 min. For the same molecule, the IC50 in experiment [5] was determined as 310 µM; in experiment [6], 190 µM.
Take `CCN(CC)CC(=O)Nc1cccc(C)c1C`: the Time in experiment [1] is listed as 7 min; in experiment [2], 16 min; in experiment [3], 25 min; in experiment [4] it was 34 min. Further, the IC50 in experiment [5] amounted to 380 µM; in experiment [6], 330 µM.
Take `CCN(CC)CCC(=O)Nc1ccc(C)c(C)c1`: the Time in experiment [1] was 26 min; in experiment [2], 48 min; in experiment [3], 80 min; in experiment [4] it was 107 min.
`CCN(CC)CCC(=O)Nc1cc(C)cc(C)c1`: the Time is reported as 88 min in experiment [1], 118 min in experiment [2], 240 min in experiment [3] and 377 min in experiment [4].
Turning to `CCN(CC)CC(=O)Nc1ccccc1C`, the Time was found to be 17 min in experiment [1], 28 min in experiment [2], 48 min in experiment [3] and 63 min in experiment [4]. Further, the IC50 in experiment [5] and in experiment [6] was 160 µM throughout.
Regarding `CCN(CC)CCC(=O)Nc1cc(C)ccc1C`, the Time came out at 22 min in experiment [1], 47 min in experiment [2], 72 min in experiment [3] and 101 min in experiment [4].
Regarding `CCN(CC)CC(=O)Nc1ccc(C)c(C)c1`, the Time in experiment [1] amounted to 11 min; in experiment [2], 20 min; in experiment [3] it was 32 min; in experiment [4] it was 55 min.
`CCN(CC)CC(=O)Nc1cc(C)ccc1C`: the Time is given as 19 min in experiment [1], 28 min in experiment [2], 40 min in experiment [3] and 54 min in experiment [4]. Also, the IC50 in experiment [5] is 140 µM; in experiment [6], 120 µM.
With `CCN(CC)CC(=O)Nc1cccc(C(F)(F)F)c1`, the Time in experiment [1] worked out at 17 min; in experiment [2], 19 min; in experiment [3], 18 min; in experiment [4], 18 min.
On to `CCN(CC)CC(=O)Nc1cc(C)cc(C)c1`, for which the Time in experiment [1] amounted to 44 min; in experiment [2] it was 91 min; in experiment [3], 134 min; in experiment [4], 181 min.
Regarding `CCN(CC)CC(=O)Nc1ccc(C(F)(F)F)cc1`, the Time came to 19 min in experiment [1], 19 min in experiment [2], 19 min in experiment [3] and 21 min in experiment [4].
As for `CCN(CC)CCC(=O)Nc1cccc(C)c1C`, the Time is listed as 22 min in experiment [1], 49 min in experiment [2], 91 min in experiment [3] and 139 min in experiment [4].
For `CCN(CC)CC(=O)Nc1ccccc1C(F)(F)F`, the Time is 8 min in experiment [1], 13 min in experiment [2], 15 min in experiment [3] and 24 min in experiment [4]. Moreover, the IC50 in experiment [5] worked out at 100 µM; in experiment [6] it was 50 µM; in experiment [7], 25400 µM.
On to `CCN(CC)CC(=O)Nc1c(C)cccc1C` [LIDOCAINE], for which the Time was found to be 37 min in experiment [1], 74 min in experiment [2], 103 min in experiment [3] and 164 min in experiment [4]. In addition, the IC50 in experiment [5] turned out to be 1410 µM; in experiment [6] it was 1430 µM; in experiment [7], 180 µM.
